These results are taken from ChEMBL document CHEMBL5727111, “Pyrrolidinyl urea, pyrrolidinyl thiourea and pyrrolidinyl guanidine compounds as TrkA kinase inhibitors” (2019).

Bounds are passed on as bounds.

By IC50 is commonly meant the concentration that gives 50% inhibition.

Sequence of High affinity nerve growth factor receptor (P04629 whole entry): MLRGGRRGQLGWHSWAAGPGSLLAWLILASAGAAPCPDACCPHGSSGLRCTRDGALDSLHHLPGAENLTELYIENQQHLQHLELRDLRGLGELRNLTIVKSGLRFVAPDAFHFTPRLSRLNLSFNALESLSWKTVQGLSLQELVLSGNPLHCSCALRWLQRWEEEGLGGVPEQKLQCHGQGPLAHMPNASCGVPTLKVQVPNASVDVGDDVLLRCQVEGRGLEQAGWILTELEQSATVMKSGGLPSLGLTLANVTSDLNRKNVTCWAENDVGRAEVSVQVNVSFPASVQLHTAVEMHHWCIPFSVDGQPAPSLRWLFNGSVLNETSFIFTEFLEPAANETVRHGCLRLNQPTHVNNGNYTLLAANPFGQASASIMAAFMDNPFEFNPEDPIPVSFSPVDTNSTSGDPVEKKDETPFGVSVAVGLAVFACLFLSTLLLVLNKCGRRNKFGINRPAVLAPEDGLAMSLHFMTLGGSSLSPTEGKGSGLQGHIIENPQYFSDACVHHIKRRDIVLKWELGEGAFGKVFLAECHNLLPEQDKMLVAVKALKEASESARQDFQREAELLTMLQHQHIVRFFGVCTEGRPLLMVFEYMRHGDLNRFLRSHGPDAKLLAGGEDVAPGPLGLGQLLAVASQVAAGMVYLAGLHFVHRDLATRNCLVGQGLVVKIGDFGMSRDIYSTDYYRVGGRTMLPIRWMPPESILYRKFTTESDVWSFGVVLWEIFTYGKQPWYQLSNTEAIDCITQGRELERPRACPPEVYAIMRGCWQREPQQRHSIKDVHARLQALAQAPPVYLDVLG

The assay concerns the target High affinity nerve growth factor receptor (Homo sapiens, UniProt P04629). Kind of assay: TrkA Omnia Assay: Trk enzymatic selectivity was assessed using Omnia Kinase Assay reagents from Invitrogen Corp. Enzyme (TrkA from Invitrogen Corp.) and test compound (various concentrations) were incubated for 10 minutes at ambient temperature in a 384-well white polypropylene plate (Nunc catalog#267462). Omnia Tyr Peptide #4, as well as ATP, were then added to the plate. Final concentrations were as follows: 20 nM enzyme, 500 μM of ATP, 10 μM peptide substrate. The assay buffer consisted of 25 mM MOPS pH 7.5, 0.005% (v/v) Triton X-100 and 5 mM MgCl2. The production of phosphorylated peptide was monitored continuously for 70 minutes using a Molecular Devices FlexStation II384 microplate reader (excitation=360 nm; emission=485 nm). Initial rates were calculated from the progress curves. IC50 values were calculated from these rates using either a 4 or 5-parameter logistic curve fit.
For `COCCN1C[C@@H](NC(=O)Nc2c(C)c(-c3cnn(C)c3)nn2-c2ccccc2)[C@H](c2ccccc2)C1`, the IC50 was under 100 nM.
With `COc1ncccc1N1C[C@@H](NC(=O)Nc2c(C)c(-c3cnn(C)c3)nn2-c2ccccc2)[C@H](c2ccccc2)C1`, the IC50 is under 100 nM.
The same measure for `COCCN1C[C@@H](NC(=O)Nc2c(C)c(-c3cnn(C)c3)nn2-c2ccccc2)[C@H](c2ccc(F)c(F)c2)C1`: under 100 nM.
Then `COCCN1C[C@@H](NC(=O)Nc2c(Cl)c(-c3cnn(C)c3)nn2-c2ccccc2)[C@H](c2cncc(F)c2)C1`, with under 100 nM; and `COCCN1C[C@@H](NC(=O)Nc2c(C)c(-c3cnn(C)c3)nn2-c2cccc(Cl)c2)[C@H](c2ccc(F)c(F)c2)C1`, with under 100 nM; and `COCCN1C[C@@H](NC(=O)Nc2c(C)c(-c3cnn(C)c3)nn2-c2ccc(F)c(Cl)c2)[C@H](c2ccc(F)c(F)c2)C1`, with under 100 nM.
Then `COCCN1C[C@@H](NC(=O)Nc2c(C)c(-c3cnn(C)c3)nn2-c2cccc(F)c2)[C@H](c2ccc(F)cc2)C1`, with under 100 nM; and `COCCN1C[C@@H](NC(=O)Nc2c(SC)c(C)nn2-c2ccccc2)[C@H](c2ccc(F)c(F)c2)C1`, with under 100 nM.
Consider `COCCN1C[C@@H](NC(=O)Nc2c(C)c(-c3cnn(C)c3)nn2-c2ccccc2)[C@H](c2cccc(C#N)c2)C1`, for which the IC50 was under 100 nM.
For the compound `CCOc1nn(-c2ccccc2)c(NC(=O)N[C@H]2CN(CC(F)(F)F)C[C@@H]2c2cccc(F)c2)c1C`, the IC50 is under 100 nM.
Regarding `COCCN1C[C@@H](NC(=O)Nc2c(C)c(-c3cnn(C)c3)nn2-c2cccc(Cl)c2F)[C@H](c2ccc(F)c(F)c2)C1`, the IC50 is under 100 nM.
Then `COCCN1C[C@@H](NC(=O)Nc2c(Cl)c(C)nn2-c2ccccc2)[C@H](c2cc(F)cc(F)c2)C1`, with under 100 nM; and `COCCN1C[C@@H](NC(=O)Nc2cc(-c3ccc(C(=O)N(C)C)cc3)nn2C)[C@H](c2ccc(F)c(F)c2)C1`, with under 100 nM; and `COCCN1C[C@@H](NC(=O)Nc2c(C)c(-c3cnn(C)c3)nn2-c2ccccc2)[C@H](c2ccc(C#N)cc2)C1`, with under 100 nM.
Then `Cc1c(-c2ccc(=O)n(C)c2)nn(-c2ccccc2)c1NC(=O)N[C@H]1CN(CC(F)(F)F)C[C@@H]1c1ccccc1`, with under 100 nM.
As to `COCCN1C[C@@H](NC(=O)Nc2c(C)c(-c3cnn(C)c3)nn2-c2ccccc2F)[C@H](c2ccc(F)cc2)C1`, the IC50 is under 100 nM.
As to `Cn1cc(-c2nn(-c3ccccc3)c(NC(=O)N[C@H]3CN(CC(F)(F)F)C[C@@H]3c3ccccc3)c2Cl)cn1`, the IC50 was under 100 nM.
The same measure for `COCCN1C[C@@H](NC(=O)Nc2c(Br)c(C)nn2-c2ccccc2)[C@H](c2cc(F)cc(F)c2)C1`: under 100 nM; for `COCCN1C[C@@H](NC(=O)Nc2c(C)c(-c3cnn(C)c3)nn2-c2ccccc2)[C@H](c2ccc(F)cn2)C1` (relative stereo): under 100 nM; for `CCOc1nn(-c2ccccc2)c(NC(=O)N[C@@H]2CN(CCOC)C[C@H]2c2cncc(Cl)c2)c1C` (relative stereo): under 100 nM.
The same measure for `COCCN1C[C@@H](NC(=O)Nc2c(Br)c(C)nn2-c2ccccc2)[C@H](c2ccc(F)cn2)C1` (relative stereo): under 100 nM; for `COCCN1C[C@@H](NC(=O)Nc2c(C)c(-c3cnn(C)c3)nn2-c2ccccc2)[C@H](c2csnn2)C1` (relative stereo): under 100 nM; for `O=C(Nc1c2c(nn1-c1ccccc1)CCC2)N[C@@H]1CN(CC(F)F)C[C@H]1c1ccc(F)cc1` (relative stereo): under 100 nM.
